The source of these data is patent publication US7563905B2, “Triazole derivatives and method of using the same to treat HIV infections” (Wyeth, priority 2004, dated 2009).

For the first assay, the target named is T1, HIV reverse transcriptase (Human immunodeficiency virus type 1 group M subtype B, UniProt P04585).
T1 construct: HIV reverse transcriptase has an RNase H domain at the C-terminus of its p66 subunit
Nature of the assay: Inhibition of HIV reverse transcriptase (RNase H fluorescent probe assay), Table I. In kind it is biochemical. An excerpt:
RNase H is an enzyme responsible for the removal of RNA primers from leading and lagging strands during DNA synthesis. It is an important enzyme for the replication of bacterial, viral and human genomes. HIV reverse transcriptase has an RNase H domain at the C-terminus of its p66 subunit. […] The ability of the compounds of the present invention to inhibit RNase H, and more particularly HIV reverse transcriptase, may be determined by any means known in the art.
Preferably, the RNase H/HIV reverse transcriptase modulatory activity of the compounds of the present invention may be determined by the methods described in copending U.S. Provisional Patent Application No. 60/436,125, filed Dec. 19, 2002 and PCT International Publication No. WO/2004/059012, filed Dec. 22, 2003 for ASSAY FOR RNase ACTIVITY of Olson et al., incorporated herein by reference in its entirety. Specifically, the modulatory activity of a triazole derivative of the present invention may be determined by hybridizing a target nucleic acid to a fluorescently labeled oligonucleotide probe complementary to the target nucleic acid and containing a fluorophor at one terminus and a quenching group at the other terminus to obtain a probe-target hybrid, wherein (i) the unhybridized probe adopts a conformation that places the fluorophon and quencher in such proximity that the quencher quenches the fluorescent signal of the fluorophon, and (ii) the formation of the probe-target hybrid causes sufficient separation of the fluorophon and quencher to reduce quenching of the fluorescent signal of the fluorophon. Next, a first and second sample containing the probe-target hybrid are prepared. The probe-target hybrid of the first sample is then contacted with an RNase H enzyme (such as HIV reverse transcriptase) in an amount sufficient to selectively cleave the target nucleic acid and thereby release the intact probe. The probe-target hybrid of the second sample is also contacted with the RNase H enzyme in an amount sufficient to selectively cleave the target nucleic acid and thereby release the intact probe in the presence of a triazole derivative of the present invention. The release of the probe in each sample may then be detected by measuring the […] in the fluorescent signal of the fluorophon as compared to the signal of the probe-target hybrid. A comparison of the rate of the decrease in the fluorescent signal of the fluorophon in the two samples is made to determine whether there is a difference in the rate of the decrease in the two samples. […] This method is also useful to identify triazole derivatives of the present invention, wherein candidate derivatives are screened for their ability to modulate RNase/HIV reverse transcriptase activity.
The IC50 is the concentration that gives 50% inhibition. `c1ccc(CSc2nnc(-c3ccccn3)n2Cc2ccccc2)cc1` [Example 7, 2-[4-benzyl-5-(benzylthio)-4H-1,2,4-triazol-3-yl]pyridine] displayed an IC50 of 1.7 µM. For `COc1ccc(CSc2nnc(-c3ccccn3)n2Cc2ccccc2)cc1` [Example 16, 2-[4-benzyl-5-(4-methoxy-benzylsulfanyl)-4H-1,2,4-triazol-3-yl]pyridine], 7 µM corresponded to half-maximal inhibition (IC50). With `c1ccc(CSc2nnc(-c3ccco3)n2Cc2ccccc2)cc1` [Example 6, 4-benzyl-3-(benzylthio)-5-(2-furyl)-4H-1,2,4-triazole], inhibition was half-maximal at 1.2 µM (IC50). Same read-out and setting: the same measure for `COc1ccc(CSc2nnc(-c3cccs3)n2Cc2ccccc2)cc1` [Example 13, 4-benzyl-3-[(4-methoxybenzyl)thio]-5-thien-2-yl-4H-1,2,4-triazole]: 5.9 µM; for `Clc1ccc(CSc2nnc(-c3ccccc3)n2Cc2ccccc2)cc1` [Example 15, 4-benzyl-3-(4-chloro-benzylsulfanyl)-5-phenyl-4H-1,2,4-triazole]: 6 µM; for `COc1ccc(CSc2nnc(-c3ccccc3)n2Cc2ccccc2)cc1` [Example 4, 4-benzyl-3-[(4-methoxybenzyl)thio]-5-phenyl-4H-1,2,4-triazole]: 1 µM. Still for that read-out and setting: in the case of `Clc1ccc(CSc2nnc(-c3ccco3)n2Cc2ccccc2)cc1` [Example 10, 4-benzyl-3-[(4-chlorobenzyl)thio]-5-(2-furyl)-4H-1,2,4-triazole] it was 3.8 µM; in that of `COc1ccc(CSc2nnc(-c3ccco3)n2Cc2ccccc2)cc1` [Example 9, 4-benzyl-3-(2-furyl)-5-[(4-methoxybenzyl)thio]-4H-1,2,4-triazole], 3.8 µM; in that of `Clc1ccc(CSc2nnc(-c3cccs3)n2Cc2ccccc2)cc1` [Example 1, 4-benzyl-3-[(4-chlorobenzyl)thio]-5-thien-2-yl-4H-1,2,4-triazole], 1.3 µM. On the same count and under the same terms, the same measure for `COc1ccc(Cn2c(SCc3ccccc3)nnc2-c2ccco2)cc1` [Example 18, 3-benzylsulfanyl-5-furan-2-yl-4-(4-methoxy-benzyl)-4H-1,2,4-triazole]: 46 µM. For the compound `COc1ccc(Cn2c(SCc3ccc(C(F)(F)F)cc3)nnc2-c2ccco2)cc1` [Example 14, 3-(2-furyl)-4(4-methoxybenzyl)-5-{[4-(trifluoromethyl)benzyl]thio}-4H-1,2,4-triazole], it took 6.5 µM to reach half-maximal inhibition (IC50). Regarding `c1ccc(Cn2c(SCc3ccncc3)nnc2-c2cccs2)cc1` [Example 3, 4-{[(4-benzyl-5-thien-2-yl-4H-1,2,4-triazol-3-yl)thio}methyl}pyridine], the IC50 turned out to be 0.2 µM. On the same count and under the same terms, in the case of `c1ccc(Cn2c(SCc3ccncc3)nnc2-c2ccccn2)cc1` [Example 8, 2-[4-benzyl-5-[(pyridine-4-ylmethyl)thio)-4H-1,2,4-triazol-3-yl]pyridine] it was 2.6 µM; in that of `c1ccc(CSc2nnc(-c3cccs3)n2Cc2ccccc2)cc1` [Example 2, 4-benzyl-3-(benzylthio)-5-thien-2-yl-4H-1,2,4-triazole], under 0.2 µM; in that of `Clc1ccc(CSc2nnc(-c3ccccn3)n2Cc2ccccc2)cc1` [Example 17, 2-[4-benzyl-5-(4-chloro-benzylsulfanyl)-4H-1,2,4-triazol-3-yl]pyridine], 23 µM. For `c1ccc(CSc2nnc(-c3ccccc3)n2Cc2ccccc2)cc1` [Example 5, 4-benzyl-3-(benzylthio)-5-phenyl-4H-1,2,4-triazole], the IC50 was 1 µM. On the same count and under the same terms, the same measure for `FC(F)(F)c1ccc(CSc2nnc(-c3ccco3)n2-c2ccccc2)cc1` [Example 12, 3-(2-furyl)-4-phenyl-5-{[4-(trifluoromethyl)benzyl]thio}-4H-1,2,4-triazole]: 4.7 µM.

The next assay concerns the target T2, HIV Reverse transcriptase (RT) 66/p51 (Human immunodeficiency virus type 1 group M subtype B, UniProt P04585).
T2 construct: HIV Reverse transcriptase (RT) 66/p51; purchased Worthington
Briefly: RNA dependent DNA polymerase (RDDP) activity of HIV RT, polyrA-oligodT12-18 / 33P TTP incorporation filter assay. The class given is biochemical.
`Cc1cn([C@H]2C[C@H](N=[N+]=[N-])[C@@H](CO)O2)c(=O)[nH]c1=O` [AZT]: the IC50 was under 0.2 µM.
